In PMC12505254, “PROTAC Enabling Formulation In Vivo: Implications of the Polymeric Carrier Eudragit E PO” (Molecular Pharmaceutics, 2025):
Values after ≈ are worked out from the molar mass of the structure shown. Where two headings read alike, the source gives them in different places.

Experiments:
[1] = Solubility of MS4078 in buffer and cFaSSIF types (24 h, 37°C); assay type: physicochemical; details: thermodynamic from solid
Method: The solubility of MS4078 was evaluated by weighing an excess amount of the compound into vials and adding a prewarmed buffer or cFaSSIF types (cFaSSIF1x , cFaSSIF5 x , and cFaSSIF10x ). The suspension was stirred at 37°C for 24 h at 300 rpm. Samples were withdrawn from the suspension, and centrifuged at 15000 rpm (Mikro 200 R, Hettich, Tuttlingen, Germany) and the supernatant was diluted 1:1 with ACN. The dissolved concentration was determined by ultraperformance liquid chromatography (UHPLC, see Section ). The experiments were carried out in triplicate.
UHPLC analysis of MS4078 is described in detail in a previous publication of our group. In brief, the samples were analyzed at 271 nm using a Waters Acquity H-Class series UHPLC system (Waters Corporation, Eschborn, Germany). A gradient was applied using ACN and water with 0.1% (V/V) trifluoracetic acid as mobile phases. Separation was realized by a Waters Acquity BEH C8 column (2.1 × 50 mm, 1.7 μm).

[2] = Pharmacokinetic study in mice (K–V i.v./p.o., SDD-V p.o.); assay type: in vivo, mice (female CD-1); details: 0.5 mg/kg in K–V
Method: To evaluate the in vivo performance of the MS4078 SDD formulation, pharmacokinetic studies in mice were conducted and compared to the corresponding Kolliphor solution vehicle. The API in Kolliphor vehicle (see Section ) and the SDD formulation were given in a single-dose study to female CD-1 mice (Charles River Laboratories, Sulzfeld, Germany). The animals were kept in group housing in conventional cages with elevated grids. Food and water were offered ad libitum to the animals.
The study was carried out at EMD Serono (Billerica, MA, USA). A total of 21 mice (female, CD-1) were divided into groups of 12 and 9 animals. The solution vehicle was prepared according to Section . Doses of 0.5 mg/kg of MS4078 were administered intravenously (dose volume: 5 mL/kg) to 12 animals and blood samples (retro-orbital) were sequentially drawn from 3 animals per sampling point at 0.1, 0.25, 0.5, 1, 2, 6, and 24 h after dosing. 10 mg/kg were administered orally (dose volume: 10 mL/kg) to the second group of 9 animals. After dosing, blood samples from 3 animals per sampling point were sequentially drawn at the time points described above, except for the 0.1 h sampling point. The blood cells were dissevered by centrifugation (2000 g, 5 min). Plasma samples were extracted using a protein precipitation reagent (ACN, 4:1 (V/V)). After the addition of 50 μL methanol, the concentration was determined by LC-MS/MS (generic method, based on tuning data).
Mouse PK studies of the enabling formulation were conducted at Nuvisan GmbH (Grafing, Germany). To determine oral bioavailability of MS4078/SDD, the SDD formulation (dose: 10 mg/kg MS4078) was weighed in, dispersed in a citrate vehicle (see Section ), and administered orally (gavage, dose volume: 10 mL/kg) to three female mice (Crl:CD1(ICR)). […] 50 μL of supernatant were diluted 1:1 with a solution of 0.1% formic acid in water and the concentration of MS4078 was determined by UHPLC-MS/MS (generic method, based on tuning data).
Plasma concentrations were determined for each time point sampled. […]

[3] = Two-stage precipitation assay simulating the conditions in mice; assay type: physicochemical
Method: To determine the dissolution and precipitation of both the Kolliphor solution vehicle and the SDD dispersion in citrate vehicle upon the GI passage in vitro, a two-stage precipitation assay was conducted which had been developed internally. Therefore, the Kolliphor vehicle containing MS4078 and the dispersion of the SDD in citrate vehicle were prepared according to the descriptions in Sections and , respectively.
According to McConnell et al., the volume of gastric fluid in mice is about 175 μL. […]
The setup of the two-stage precipitation experiments and an overview of the samples are depicted in Figure and Table . […] The concentration of MS4078 was determined by sampling and UHPLC analysis or the turbidity of the samples was analyzed in-line using the Cary3500 (Agilent, Santa Clara, CA, USA) (Figure D). […] As a first step, the optical density (OD) of the cFaSSIF types, Blank-DM (citrate vehicle/SGF pH 4 mixture without polymer or API) and P-DM (a solution of E PO in citrate vehicle/SGF pH 4 mixture) were measured in a range of 200–800 nm (Figure S2). […]
1 Schematic setup of the two-stage precipitation experiments. […] All samples were centrifuged (15,000 rpm (Mikro 200 R)) for 60 s, and the supernatant was diluted with ACN and analyzed via UHPLC (see Section ). […]

- solubility at 24 h ([1]; aqueous buffer, citrate-phosphate buffer pH 5, 37°C, read-out: Solubility): ~2 µg/mL (≈ 2.19 µM)
- solubility at 24 h ([1]; fassgf or other biorelevant, cFaSSIF5x pH 5, 37°C, read-out: Solubility in 5x concentrated cFaSSIF): ~220 µg/mL (≈ 241 µM)
- solubility at 24 h ([1]; fassif, cFaSSIF1x pH 5, 37°C, read-out: Solubility S(cFaSSIF1x)): 78 µg/mL (≈ 85.3 µM)
- in vivo total clearance as % mouse liver blood flow [2]: 20 % mouse liver blood flow
- clearance ([2]; female, CD-1, mouse, plasma, iv, read-out: in vivo total clearance (converted)): 20.3 mL/min/kg
- Vd ([2]; female, CD-1, mouse, plasma, iv, read-out: volume of distribution (Vss)): 1.05 L/kg
- Dissolved MS4078 concentration in acceptor compartment maintained until end of experiment ([3]; SDD-DM transferred to cFaSSIF10x, from the 20 min sampling point): 30 µg/mL
- Dissolved MS4078 concentration in acceptor compartment after phase separation (plateau) ([3]; SDD-DM transferred to cFaSSIF20x): ~220 µg/mL
SMILES: Cc1cc(Nc2ncc(Cl)c(Nc3ccccc3S(=O)(=O)C(C)C)n2)c(OC(C)C)cc1C1CCN(CC(=O)NCCNc2cccc3c2C(=O)N(C2CCC(=O)NC2=O)C3=O)CC1 (centres unmarked) [MS4078]
